Measured values: patent US20240218022A1, “ANTI-VISTA MACROCYCLIC PEPTIDES AND COMPOSITIONS” (BRISTOL-MYERS SQUIBB COMPANY, priority 2022, published 2024)
Starred links: 1 amine or outer side, 2 acyl side, 3 side chain; linkers in the order of their positions; H or OH if unused. Positions of bridges follow the written chain, without caps; N, C: chain ends. Non-standard residues stand in square brackets, D forms with d. Residues, ends and D or L forms follow the SMILES beside them. ξ: configuration not given here. γGlu = O=C(O)[C@H](CCC(=O)[*:2])N[*:1]; NMeThr(3ξ) = CN[C@H](C(=O)O)C(C)O; NMeL = CN[C@@H](CC(C)C)C(=O)O; Ahp(2) = CCCCC[C@H](N)C(=O)O; NMeNle = CCCC[C@H](NC)C(=O)O; Tle = CC(C)(C)[C@H](N)C(=O)O; NMeV = CN[C@H](C(=O)O)C(C)C; NHexGly = CCCCCCNCC(=O)O; Orn = NCCC[C@H](N)C(=O)O; Aun = NCCCCCCCCCCC(=O)O; AEEA = NCCOCCOCC(=O)O

Biological target: T1, mouse VISTA (mVISTA) (Mus musculus, UniProt Q9D659)
T1 construct: expressed in transfected cells; host or cells: Human embryonic kidney 293T cells
T1 sequence (Q9D659 33-308): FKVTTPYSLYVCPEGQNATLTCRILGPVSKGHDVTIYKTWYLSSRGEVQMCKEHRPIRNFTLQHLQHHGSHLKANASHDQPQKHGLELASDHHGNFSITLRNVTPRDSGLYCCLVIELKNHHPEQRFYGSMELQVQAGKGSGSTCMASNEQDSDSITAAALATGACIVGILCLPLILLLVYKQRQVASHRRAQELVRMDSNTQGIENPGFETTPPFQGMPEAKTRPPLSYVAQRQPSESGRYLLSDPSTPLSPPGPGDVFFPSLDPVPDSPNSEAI
Experiment: Cell-Based Binding High-Content Assay For mVISTA (HC CBA mVISTA)
Conditions: read-out: HC CBA mVISTA IC50
Summary of the method: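 mVISTA-293T, 4,000 cells/well; cpd ± washout step; biotin-peptide 2 nM final, 30 min RT; SA-Alexa 647 30 min; formaldehyde/Hoechst fix; HCS imaging; 4PL IC50.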

Compound | IC50 [nM]
CCCCCCN1CC(=O)N[C@@H](Cc2ccc(O)cc2)C(=O)N[C@@H](CC(C)C)C(=O)N[C@@H](CC(N)=O)C(=O)N[C@@H](CCCNC(=N)N)C(=O)N(C)[C@@H](CC(C)C)C(=O)N[C@@H](CCCCC)C(=O)N2CCC[C@H]2C(=O)N[C@@H](C(C)(C)C)C(=O)N[C@@H](CC(=O)O)C(=O)N[C@H](C(=O)NCCOCCOCC(=O)N[C@@H](CCC(=O)NCCOCCOCC(=O)NCCCCCCCCCCC(=O)O)C(=O)O)CSCC(=O)N[C@@H](Cc2ccccc2)C(=O)N[C@@H](Cc2ccc(O)cc2)C(=O)N[C@@H](CC(=O)O)C1=O [compound 2267] ({CH2CO}-FYD[NHexGly]YLNR[NMeL][Ahp(2)]P[Tle]DC[AEEA][γGlu][AEEA][Aun]-OH; thioether N-14) | 28.9
CCCCCCN1CC(=O)N[C@@H](Cc2ccc(O)cc2)C(=O)N[C@@H](CC(C)C)C(=O)N[C@@H](CC(N)=O)C(=O)N[C@@H](CCCNC(=N)N)C(=O)N(C)[C@@H](CCCC)C(=O)N[C@@H](CCCCC)C(=O)N2CCC[C@H]2C(=O)N[C@@H](C(C)(C)C)C(=O)N[C@@H](CO)C(=O)N[C@H](C(=O)NCCOCCOCC(=O)N[C@@H](CCC(=O)NCCOCCOCC(=O)NCCCCCCCCCCC(=O)O)C(=O)O)CSCC(=O)N[C@@H](Cc2ccccc2)C(=O)N[C@@H](Cc2c[nH]c3ccccc23)C(=O)N[C@@H](CC(=O)O)C1=O [compound 2268] ({CH2CO}-FWD[NHexGly]YLNR[NMeNle][Ahp(2)]P[Tle]SC[AEEA][γGlu][AEEA][Aun]-OH; thioether N-14) | 16.1
CCCCCCN1CC(=O)N[C@@H](Cc2ccc(O)cc2)C(=O)N[C@@H](CC(C)C)C(=O)N[C@@H](CC(N)=O)C(=O)N[C@@H](CCCNC(=N)N)C(=O)N(C)[C@@H](CC(C)C)C(=O)N[C@@H](CCCCC)C(=O)N2CCC[C@H]2C(=O)N[C@@H](C(C)(C)C)C(=O)N[C@@H](CC(=O)O)C(=O)N[C@H](C(=O)NCCOCCOCC(=O)N[C@@H](CCC(=O)NCCOCCOCC(=O)NCCCCCCCCCCC(=O)O)C(=O)O)CSCC(=O)N[C@@H](Cc2ccccc2)C(=O)N[C@@H](Cc2c[nH]c3ccccc23)C(=O)N[C@@H](CC(=O)O)C1=O [compound 2269] ({CH2CO}-FWD[NHexGly]YLNR[NMeL][Ahp(2)]P[Tle]DC[AEEA][γGlu][AEEA][Aun]-OH; thioether N-14) | 28.2
CCCCCCN1CC(=O)N[C@@H](Cc2ccc(O)cc2)C(=O)N[C@@H](CC(C)C)C(=O)N[C@@H](CC(N)=O)C(=O)N[C@@H](CCCNC(=N)N)C(=O)N(C)[C@@H](CC(C)C)C(=O)N[C@@H](CCCCC)C(=O)N2CCC[C@H]2C(=O)N[C@@H](C(C)(C)C)C(=O)N[C@@H](CO)C(=O)N[C@H](C(=O)NCCOCCOCC(=O)N[C@@H](CCC(=O)NCCOCCOCC(=O)NCCCCCCCCCCC(=O)O)C(=O)O)CSCC(=O)N[C@@H](Cc2ccccc2)C(=O)N[C@@H](Cc2ccc(O)cc2)C(=O)N[C@@H](CC(=O)O)C1=O [compound 2270] ({CH2CO}-FYD[NHexGly]YLNR[NMeL][Ahp(2)]P[Tle]SC[AEEA][γGlu][AEEA][Aun]-OH; thioether N-14) | 18.8
CCCCCCN1CC(=O)N[C@@H](Cc2ccc(O)cc2)C(=O)N[C@@H](CC(C)C)C(=O)N[C@@H](CC(N)=O)C(=O)N[C@@H](CCCNC(=N)N)C(=O)N(C)[C@@H](C(C)C)C(=O)N[C@@H](CCCCC)C(=O)N2CCC[C@H]2C(=O)N[C@@H](C(C)(C)C)C(=O)N[C@@H](CO)C(=O)N[C@H](C(=O)NCCOCCOCC(=O)N[C@@H](CCC(=O)NCCOCCOCC(=O)NCCCCCCCCCCC(=O)O)C(=O)O)CSCC(=O)N[C@@H](Cc2ccccc2)C(=O)N[C@@H](Cc2ccc(O)cc2)C(=O)N[C@@H](CC(=O)O)C1=O [compound 2271] ({CH2CO}-FYD[NHexGly]YLNR[NMeV][Ahp(2)]P[Tle]SC[AEEA][γGlu][AEEA][Aun]-OH; thioether N-14) | 25.4
CCCCCCN1CC(=O)N[C@@H](Cc2ccc(O)cc2)C(=O)N[C@@H](CC(C)C)C(=O)N[C@@H](CC(N)=O)C(=O)N[C@@H](CCCNC(=N)N)C(=O)N(C)[C@@H](C(C)C)C(=O)N[C@@H](CCCCC)C(=O)N2CCC[C@H]2C(=O)N[C@@H](C(C)(C)C)C(=O)N[C@@H](CO)C(=O)N[C@H](C(=O)NCCOCCOCC(=O)N[C@@H](CCC(=O)NCCOCCOCC(=O)NCCCCCCCCCCC(=O)O)C(=O)O)CSCC(=O)N[C@@H](Cc2ccccc2)C(=O)N[C@@H](Cc2c[nH]c3ccccc23)C(=O)N[C@@H](CC(=O)O)C1=O [compound 2272] ({CH2CO}-FWD[NHexGly]YLNR[NMeV][Ahp(2)]P[Tle]SC[AEEA][γGlu][AEEA][Aun]-OH; thioether N-14) | 34.4
CCCCCCN1CC(=O)N[C@@H](Cc2ccc(O)cc2)C(=O)N[C@@H](CC(C)C)C(=O)N[C@@H](CC(N)=O)C(=O)N[C@@H](CCCNC(=N)N)C(=O)N(C)[C@@H](C(C)O)C(=O)N[C@@H](CCCCC)C(=O)N2CCC[C@H]2C(=O)N[C@@H](C(C)(C)C)C(=O)N[C@@H](CC(=O)O)C(=O)N[C@H](C(=O)NCCOCCOCC(=O)N[C@@H](CCC(=O)NCCOCCOCC(=O)NCCCCCCCCCCC(=O)O)C(=O)O)CSCC(=O)N[C@@H](Cc2ccccc2)C(=O)N[C@@H](Cc2c[nH]c3ccccc23)C(=O)N[C@@H](CC(=O)O)C1=O (stereo partly shown) [compound 2273] ({CH2CO}-FWD[NHexGly]YLNR[NMeThr(3ξ)][Ahp(2)]P[Tle]DC[AEEA][γGlu][AEEA][Aun]-OH; thioether N-14) | 33.6
CCCCCCN1CC(=O)N[C@@H](Cc2ccc(O)cc2)C(=O)N[C@@H](CC(C)C)C(=O)N[C@@H](CC(N)=O)C(=O)N[C@@H](CCCNC(=N)N)C(=O)N(C)[C@@H](C(C)C)C(=O)N[C@@H](CCCCC)C(=O)N2CCC[C@H]2C(=O)N[C@@H](C(C)(C)C)C(=O)N[C@@H](CC(=O)O)C(=O)N[C@H](C(=O)NCCOCCOCC(=O)N[C@@H](CCC(=O)NCCOCCOCC(=O)NCCCCCCCCCCC(=O)O)C(=O)O)CSCC(=O)N[C@@H](Cc2ccccc2)C(=O)N[C@@H](Cc2ccc(O)cc2)C(=O)N[C@@H](CC(=O)O)C1=O [compound 2274] ({CH2CO}-FYD[NHexGly]YLNR[NMeV][Ahp(2)]P[Tle]DC[AEEA][γGlu][AEEA][Aun]-OH; thioether N-14) | 18.8
CCCCCCN1CC(=O)N[C@@H](Cc2ccc(O)cc2)C(=O)N[C@@H](CC(C)C)C(=O)N[C@@H](CC(N)=O)C(=O)N[C@@H](CCCNC(=N)N)C(=O)N(C)[C@@H](C(C)O)C(=O)N[C@@H](CCCCC)C(=O)N2CCC[C@H]2C(=O)N[C@@H](C(C)(C)C)C(=O)N[C@@H](CC(=O)O)C(=O)N[C@H](C(=O)NCCOCCOCC(=O)N[C@@H](CCC(=O)NCCOCCOCC(=O)NCCCCCCCCCCC(=O)O)C(=O)O)CSCC(=O)N[C@@H](Cc2ccccc2)C(=O)N[C@@H](Cc2ccc(O)cc2)C(=O)N[C@@H](CC(=O)O)C1=O (stereo partly shown) [compound 2275] ({CH2CO}-FYD[NHexGly]YLNR[NMeThr(3ξ)][Ahp(2)]P[Tle]DC[AEEA][γGlu][AEEA][Aun]-OH; thioether N-14) | 31.8
CCCCCCN1CC(=O)N[C@@H](Cc2ccc(O)cc2)C(=O)N[C@@H](CC(C)C)C(=O)N[C@@H](CC(N)=O)C(=O)N[C@@H](CCCNC(=N)N)C(=O)N(C)[C@@H](C(C)C)C(=O)N[C@@H](CCCCC)C(=O)N2CCC[C@H]2C(=O)N[C@@H](C(C)(C)C)C(=O)N[C@@H](CC(=O)O)C(=O)N[C@H](C(=O)NCCOCCOCC(=O)N[C@@H](CCC(=O)NCCOCCOCC(=O)NCCCCCCCCCCC(=O)O)C(=O)O)CSCC(=O)N[C@@H](Cc2ccccc2)C(=O)N[C@@H](Cc2c[nH]c3ccccc23)C(=O)N[C@@H](CC(=O)O)C1=O [compound 2276] ({CH2CO}-FWD[NHexGly]YLNR[NMeV][Ahp(2)]P[Tle]DC[AEEA][γGlu][AEEA][Aun]-OH; thioether N-14) | 30
CCCCCCN1CC(=O)N[C@@H](Cc2ccc(O)cc2)C(=O)N[C@@H](CC(C)C)C(=O)N[C@@H](CC(N)=O)C(=O)N[C@@H](CCCNC(=N)N)C(=O)N(C)[C@@H](CCCC)C(=O)N[C@@H](CCCCC)C(=O)N2CCC[C@H]2C(=O)N[C@@H](C(C)(C)C)C(=O)N[C@@H](C(C)C)C(=O)N[C@H](C(=O)NCCOCCOCC(=O)N[C@@H](CCC(=O)NCCOCCOCC(=O)NCCCCCCCCCCC(=O)O)C(=O)O)CSCC(=O)N[C@@H](Cc2ccccc2)C(=O)N[C@@H](Cc2ccc(O)cc2)C(=O)N[C@@H](CC(=O)O)C1=O [compound 2277] ({CH2CO}-FYD[NHexGly]YLNR[NMeNle][Ahp(2)]P[Tle]VC[AEEA][γGlu][AEEA][Aun]-OH; thioether N-14) | 21.2
CCCCCCN1CC(=O)N[C@@H](Cc2ccc(O)cc2)C(=O)N[C@@H](CC(C)C)C(=O)N[C@@H](CC(N)=O)C(=O)N[C@@H](CCCN)C(=O)N(C)[C@@H](CCCC)C(=O)N[C@@H](CCCCC)C(=O)N2CCC[C@H]2C(=O)N[C@@H](C(C)(C)C)C(=O)N[C@@H](CO)C(=O)N[C@H](C(=O)NCCOCCOCC(=O)N[C@@H](CCC(=O)NCCOCCOCC(=O)NCCCCCCCCCCC(=O)O)C(=O)O)CSCC(=O)N[C@@H](Cc2ccccc2)C(=O)N[C@@H](Cc2ccc(O)cc2)C(=O)N[C@@H](CC(=O)O)C1=O [compound 2278] ({CH2CO}-FYD[NHexGly]YLN[Orn][NMeNle][Ahp(2)]P[Tle]SC[AEEA][γGlu][AEEA][Aun]-OH; thioether N-14) | 28.2
CCCCCCN1CC(=O)N[C@@H](Cc2ccc(O)cc2)C(=O)N[C@@H](CC(C)C)C(=O)N[C@@H](CC(N)=O)C(=O)N[C@@H](CCCN)C(=O)N(C)[C@@H](CCCC)C(=O)N[C@@H](CCCCC)C(=O)N2CCC[C@H]2C(=O)N[C@@H](C(C)(C)C)C(=O)N[C@@H](C(C)C)C(=O)N[C@H](C(=O)NCCOCCOCC(=O)N[C@@H](CCC(=O)NCCOCCOCC(=O)NCCCCCCCCCCC(=O)O)C(=O)O)CSCC(=O)N[C@@H](Cc2ccccc2)C(=O)N[C@@H](Cc2ccc(O)cc2)C(=O)N[C@@H](CC(=O)O)C1=O [compound 2279] ({CH2CO}-FYD[NHexGly]YLN[Orn][NMeNle][Ahp(2)]P[Tle]VC[AEEA][γGlu][AEEA][Aun]-OH; thioether N-14) | 28.6
